Assays:
[1] = logD(7.4) determination (n-octanol / phosphate buffer distribution); assay type: physicochemical; conditions: n-octanol / 0.05 M phosphate buffer pH 7.4; mean ± SD
Procedure: Since high lipophilicity of peptidic radiotracers can lead to a high plasma protein binding, resulting in unspecific organ and high liver uptakes, thus negatively impact tumor visualization, the lipophilicity of the HBPLs was determined to get an approximate estimation of the in vivo biodistribution behavior of the radioligands. Therefore, the logD(7.4) values of the SiFAlin-modified HBPLs [^18F]1–[^18F]6 were determined via their distribution coefficient between n-octanol and phosphate buffer at pH 7.4.
The radiotracer solutions were first diluted with 0.9% NaCl solution to give a final EtOH concentration of <10%. A total of 5 MBq of the respective radiotracer in solution was added to 1.6 mL of a mixture of n-octanol and 0.05 M phosphate buffer (pH = 7.4) (v/v, 1/1), and the solution was vigorously shaken for 5 min. Subsequently, the phases were separated by centrifugation at 13.4 rpm for 2 min, and 100 μL of organic and aqueous phases were collected. The activity of each sample was measured using a gamma counter. The lipophilicity of each compound was determined in triplicate in three independent experiments.

[2] = Stability of radiotracers in human serum (radio-HPLC); assay type: in vitro ADME; conditions: 37 °C, 120 min, mean ± SD, read-out: Stability: intact radiotracer after 120 min of incubation in human serum
Procedure: In addition to the investigation of the radiotracers’ lipophilicity, their stability in human serum was evaluated in order to determine possible stability issues of the newly developed agents. For this purpose, the respective ^18F-labeled HBPLs were incubated in human serum at 37 °C for 120 min. The results of these experiments are summarized in Table 1, and the corresponding radio-HPLC chromatograms for [^18F]2 as representative examples for all compounds studied are depicted in Figure 3A (see Supplementary Materials, Figure S91 for the results obtained for the other radioligands). In Figure 3B, the portions of intact radiotracer over the course of the stability experiments are depicted.
The radiotracer solutions were first diluted with 0.9% NaCl solution to give a final EtOH concentration of <10%. Then, 6 × 25 μL radiotracer solution was added to 6 × 100 μL human serum and incubated at 37°C for 120 min. At defined time points (5, 15, 30, 60, 90 and 120 min), 125 μL EtOH was added to one of the mixtures and the precipitation of serum proteins was supported by ice-cooling for 2 min. After centrifugation at 13.4 rpm for 2 min, the supernatant was analyzed by analytical radio-HPLC (0–100% MeCN + 0.1% TFA in 5 min). The experiment was performed for each compound trice by three independent experiments.

SMILES | logD [1] | remaining at 2 h [2] [%]
CCCC[C@H](NC(=O)CNC(=O)CNC(=O)CCOCCOCCC(=O)NCCCN(CCCNC(=O)CCOCCOCCC(=O)NCCCC[C@@H]1NC(=O)[C@@H](Cc2ccccc2)NC(=O)[C@H](CC(=O)O)NC(=O)CNC(=O)[C@H](CCCNC(=N)N)NC1=O)CC(=O)N[C@@H](CCCCNC(=O)CCC[N+](C)(C)Cc1ccc([Si](F)(C(C)(C)C)C(C)(C)C)cc1)C(N)=O)C(=O)N[C@H]1CC(=O)NCCCC[C@@H](C(N)=O)NC(=O)[C@H](Cc2c[nH]c3ccccc23)NC(=O)[C@H](CCCNC(=N)N)NC(=O)[C@@H](Cc2ccccc2)NC(=O)[C@H](Cc2c[nH]cn2)NC1=O [[^18F]1] | -1.08 ± 0.07 | 87 ± 2.3
CCCC[C@H](NC(=O)CNC(=O)CNC(=O)CCOCCOCCOCCOCCOCCOCCC(=O)NCCCN(CCCNC(=O)CCOCCOCCOCCOCCOCCOCCC(=O)NCCCC[C@@H]1NC(=O)[C@@H](Cc2ccccc2)NC(=O)[C@H](CC(=O)O)NC(=O)CNC(=O)[C@H](CCCNC(=N)N)NC1=O)CC(=O)N[C@@H](CCCCNC(=O)CCC[N+](C)(C)Cc1ccc([Si](F)(C(C)(C)C)C(C)(C)C)cc1)C(N)=O)C(=O)N[C@H]1CC(=O)NCCCC[C@@H](C(N)=O)NC(=O)[C@H](Cc2c[nH]c3ccccc23)NC(=O)[C@H](CCCNC(=N)N)NC(=O)[C@@H](Cc2ccccc2)NC(=O)[C@H](Cc2c[nH]cn2)NC1=O [[^18F]3] | -1.15 ± 0.01 | 81.4 ± 2.9
CCCC[C@H](NC(=O)CNC(=O)CNC(=O)COCC(=O)NCCCN(CCCNC(=O)COCC(=O)NCCCC[C@@H]1NC(=O)[C@@H](Cc2ccccc2)NC(=O)[C@H](CC(=O)O)NC(=O)CNC(=O)[C@H](CCCNC(=N)N)NC1=O)CC(=O)N[C@@H](CCCCNC(=O)CCC[N+](C)(C)Cc1ccc([Si](F)(C(C)(C)C)C(C)(C)C)cc1)C(N)=O)C(=O)N[C@H]1CC(=O)NCCCC[C@@H](C(N)=O)NC(=O)[C@H](Cc2c[nH]c3ccccc23)NC(=O)[C@H](CCCNC(=N)N)NC(=O)[C@@H](Cc2ccccc2)NC(=O)[C@H](Cc2c[nH]cn2)NC1=O [[^18F]5] | -1.21 ± 0.01 | 83.2 ± 2.4
CCCC[C@H](NC(=O)CNC(=O)CNC(=O)[C@H](CCC(=O)O)NC(=O)CNC(=O)[C@H](CCC(=O)O)NC(=O)CNC(=O)[C@H](CCC(=O)O)NC(=O)C(=O)NCCCN(CCCNC(=O)C(=O)N[C@@H](CCC(=O)O)C(=O)NCC(=O)N[C@@H](CCC(=O)O)C(=O)NCC(=O)N[C@@H](CCC(=O)O)C(=O)NCCCC[C@@H]1NC(=O)[C@@H](Cc2ccccc2)NC(=O)[C@H](CC(=O)O)NC(=O)CNC(=O)[C@H](CCCNC(=N)N)NC1=O)CC(=O)N[C@@H](CCCCNC(=O)CCC[N+](C)(C)Cc1ccc([Si](F)(C(C)(C)C)C(C)(C)C)cc1)C(N)=O)C(=O)N[C@H]1CC(=O)NCCCC[C@@H](C(N)=O)NC(=O)[C@H](Cc2c[nH]c3ccccc23)NC(=O)[C@H](CCCNC(=N)N)NC(=O)[C@@H](Cc2ccccc2)NC(=O)[C@H](Cc2c[nH]cn2)NC1=O [[^18F]6] | -1.52 ± 0.01 | 82.7 ± 1.8

Source: publication PMC8228600, “Design, Synthesis, In Vitro and In Vivo Evaluation of Heterobivalent SiFAlin-Modified Peptidic Radioligands Targeting Both Integrin αvβ3 and the MC1 Receptor—Suitable for the Specific Visualization of Melanomas?” (Pharmaceuticals, 2021)
